# According to PubChem BioAssay (NCI):
#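 Values below derive from 48-hour exposures of cells grown in 96-well plates, with endpoints linearly interpolated between the two concentrations bracketing the appropriate inhibition level. TGI is the concentration that stops growth completely.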
# How the values were obtained:
# Assay in all cases: NCI-60 cell line screen, 48 h
# [1] = tested on: DLD-1 colon
# [2] = tested on: DMS 114 small cell lung
# [3] = tested on: DMS 273 small cell lung
# [4] = tested on: HOP-18 NSCLC
# [5] = tested on: KM20L2 colon
# [6] = tested on: LXFL 529 NSCLC
# [7] = tested on: RXF-631 renal
# [8] = tested on: SNB-78 CNS
SMILES,TGI [1],TGI [2],TGI [3],TGI [4],TGI [5],TGI [6],TGI [7],TGI [8]
CN1CCCCC(C(O)(c2ccccc2)c2ccccc2)C1=O (stereo not drawn),> 100 µM,> 100 µM,> 100 µM,> 100 µM,> 100 µM,> 100 µM,> 100 µM,> 100 µM
CCOC12SC(=Nc3ccc(C)cc3)NN1C(=S)N(C)N=C2C (stereo not drawn),> 100 µM,> 100 µM,> 100 µM,> 100 µM,> 100 µM,> 100 µM,–,–
Cc1cc(N=C2C=C(Nc3cc(C)on3)C(=O)c3ccccc32)no1,> 100 µM,73.7 µM,> 100 µM,92.2 µM,> 100 µM,> 100 µM,> 100 µM,68.1 µM
COC(=O)n1c(CBr)c(Br)c2ccccc21,> 100 µM,> 100 µM,> 100 µM,–,> 100 µM,–,–,–
CC(=O)NC1=C(NCc2ccc(Cl)cc2)C(=O)c2ccccc2C1=O,13.2 µM,–,14.6 µM,–,> 50 µM,13 µM,–,24.1 µM
CC(=O)Nc1ccc(-c2nnc(SCC(=O)Nc3ccccc3C)o2)cc1,> 100 µM,> 100 µM,> 100 µM,> 100 µM,> 100 µM,> 100 µM,–,> 100 µM
COc1cc2c(c(OC)c1OC)-c1ccc(SC)c(=O)cc1C(CC(=O)Oc1cccc(C#N)c1)C2 (stereo not drawn),> 100 µM,–,> 100 µM,> 100 µM,0.443 µM,> 100 µM,–,> 100 µM
O=C(O)c1ccc(C2C3C=CC(C3)C2[N+](=O)[O-])cc1 (stereo not drawn),> 100 µM,> 100 µM,> 100 µM,–,> 100 µM,> 100 µM,> 100 µM,> 100 µM
Nc1nc(SCCC/C=C/I)nc2c1ncn2C1OC(CO)C(O)C1O (stereo not drawn),> 202 µM,> 202 µM,> 202 µM,> 202 µM,> 202 µM,–,–,> 202 µM
CCOC(=O)[C@H]1Nc2ccc(Cl)cc2[C@H]2c3ccccc3O[C@H]21,> 100 µM,> 100 µM,> 100 µM,> 100 µM,> 100 µM,> 100 µM,> 100 µM,> 100 µM
Clc1ncnc2c1ncn2CCCCCCCCCCCCn1cnc2c(Cl)ncnc21,20.4 µM,3.55 µM,14.1 µM,58.3 µM,30 µM,17.5 µM,–,11.2 µM
COc1ccc(C(O)/C(=C/n2ccnc2)c2ccccc2)cc1OC (stereo not drawn),> 100 µM,> 100 µM,> 100 µM,> 100 µM,> 100 µM,–,> 100 µM,–
COC(=O)c1cccc(C(=O)OC)c1,> 100 µM,–,> 100 µM,> 100 µM,–,> 100 µM,–,> 100 µM
C=CCN(CC=C)CC(C(C)=O)C(c1ccccc1)c1c(O)c2ccccc2oc1=O (stereo not drawn),> 100 µM,> 100 µM,> 100 µM,–,> 100 µM,> 100 µM,–,> 100 µM
COc1nc2[nH]ccc2c(=O)n1C,> 100 µM,> 100 µM,> 100 µM,> 100 µM,–,> 100 µM,> 100 µM,> 100 µM
COc1ccccc1NC(=O)CC(=O)NNCC(=O)Nc1nnc(-c2ccccc2)o1,> 100 µM,> 100 µM,> 100 µM,–,> 100 µM,> 100 µM,> 100 µM,> 100 µM
